Assays:
[1] = molecular target: T1, recombinant human GST-GCK (Homo sapiens, UniProt P35557); assay type: biochemical; settings: 4 nM GCK, 37.5 mM glucose, fit accounting for substrate inhibition, mean ± SD; read-out: ATP Km
T1 construct: GST (glutathione-S-transferase); made in house
T1 sequence (P35557 1-465): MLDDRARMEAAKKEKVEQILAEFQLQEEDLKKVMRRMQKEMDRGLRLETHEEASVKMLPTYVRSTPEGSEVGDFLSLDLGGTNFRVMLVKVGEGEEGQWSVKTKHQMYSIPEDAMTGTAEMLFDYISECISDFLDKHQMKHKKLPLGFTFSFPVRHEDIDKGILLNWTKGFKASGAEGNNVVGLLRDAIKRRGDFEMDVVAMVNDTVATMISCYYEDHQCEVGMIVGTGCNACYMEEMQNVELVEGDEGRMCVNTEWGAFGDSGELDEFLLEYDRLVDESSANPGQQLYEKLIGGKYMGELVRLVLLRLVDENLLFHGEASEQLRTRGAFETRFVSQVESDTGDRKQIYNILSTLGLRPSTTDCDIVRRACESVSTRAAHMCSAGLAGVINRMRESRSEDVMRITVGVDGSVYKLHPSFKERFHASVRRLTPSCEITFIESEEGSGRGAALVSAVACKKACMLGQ
Procedure: The ATP Km for GCK was determined by fluorescent monitoring of NADH oxidation using a dual-coupling system whereby generation of ADP by GCK was coupled to oxidation of NADH via PK and LDH (Figure S2A) [37]. The final reaction contained 4 nM GCK, glucose in five-fold excess of the calculated glucose S0.5 (37.5 mM), and ATP concentrations ranging from 0 to 2 mM. The reaction was initiated by addition of ATP and read immediately, then every 10 seconds for 5 minutes. Each ATP concentration was tested in quadruplicate. The initial slopes (v0) for each concentration were determined by linear regression (GraphPad Prism, GraphPad Software, San Diego, CA, USA), and then v0 was plotted against ATP concentration (Figure S2B).
(A) Reaction scheme of PK/LDH dual-coupled assay. The reaction included 4 nM GCK. (B) Reaction progress over the first 60 seconds was monitored by the loss of NADH fluorescence at 450 nm using a ViewLux Microplate Imager and results analyzed by linear regression. Resultant slopes from regression were plotted and the curve fit using nonlinear regression accounting for substrate inhibition in GraphPad Prism to give a best-fit Km value.

[2] = system: GCK (recombinant GST-GCK); settings: cited from earlier work
[3] = molecular target: T2, GCK-GKRP interaction (recombinant human GST-GCK and FLAG-GKRP) (Homo sapiens, UniProt P35557+Q14397); assay: HTRF assay of the GCK-GKRP protein-protein interaction; assay type: binding; settings: 5 nM GCK, 5 nM GKRP, 2 µM S6P, mean ± SD; read-out: IC50 (inhibition of GCK-GKRP interaction, HTRF signal)
T2 construct: made in house
T2 sequence (P35557 1-465): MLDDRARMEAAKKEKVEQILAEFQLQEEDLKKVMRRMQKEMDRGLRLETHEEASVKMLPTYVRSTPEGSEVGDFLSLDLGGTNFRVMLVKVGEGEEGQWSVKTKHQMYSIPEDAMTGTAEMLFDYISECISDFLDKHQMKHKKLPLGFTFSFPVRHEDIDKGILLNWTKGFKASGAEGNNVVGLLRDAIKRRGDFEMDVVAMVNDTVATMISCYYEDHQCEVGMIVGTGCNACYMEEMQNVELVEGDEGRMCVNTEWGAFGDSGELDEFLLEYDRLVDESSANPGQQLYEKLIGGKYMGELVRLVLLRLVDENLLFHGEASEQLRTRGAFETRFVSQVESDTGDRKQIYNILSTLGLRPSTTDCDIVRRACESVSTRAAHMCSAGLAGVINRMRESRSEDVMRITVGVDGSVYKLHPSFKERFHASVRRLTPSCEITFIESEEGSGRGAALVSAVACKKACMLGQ
T2 sequence (Q14397 1-625): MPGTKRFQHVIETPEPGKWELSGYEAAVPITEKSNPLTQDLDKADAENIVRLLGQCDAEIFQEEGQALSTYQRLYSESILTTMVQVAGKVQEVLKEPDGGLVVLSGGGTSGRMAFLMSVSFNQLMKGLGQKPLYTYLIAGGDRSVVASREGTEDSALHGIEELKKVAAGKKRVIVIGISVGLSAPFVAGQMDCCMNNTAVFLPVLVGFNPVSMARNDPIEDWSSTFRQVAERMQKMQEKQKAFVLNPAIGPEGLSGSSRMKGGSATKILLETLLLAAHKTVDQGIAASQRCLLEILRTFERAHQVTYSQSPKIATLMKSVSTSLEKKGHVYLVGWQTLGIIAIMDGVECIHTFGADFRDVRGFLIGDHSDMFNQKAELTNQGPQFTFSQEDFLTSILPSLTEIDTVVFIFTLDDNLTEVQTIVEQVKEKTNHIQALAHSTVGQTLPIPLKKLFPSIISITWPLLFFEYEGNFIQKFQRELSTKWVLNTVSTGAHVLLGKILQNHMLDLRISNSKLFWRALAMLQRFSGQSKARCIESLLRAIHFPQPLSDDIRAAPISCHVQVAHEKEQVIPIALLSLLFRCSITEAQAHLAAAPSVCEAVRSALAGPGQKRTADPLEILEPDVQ
Procedure: Homogeneous time-resolved fluorescence (HTRF) technology (Cisbio Bioassays, Bedford, MA, USA) was utilized for antibody-based FRET measurement of the GCK-GKRP protein-protein interaction. Recombinant human GST-GCK and FLAG-GKRP were mixed in an HTRF assay buffer containing 2 mM MgCl2, 25 mM KCl, 25 mM HEPES, 1 mM DTT, 0.1% Tween-20, and 0.025% BSA (all buffer components Sigma-Aldrich). The pH was adjusted to 7.1 by drop-wise addition of 10 N NaOH. […] For assays in 1536-well plate format, the two reaction mixes were dispensed using an Aurora Discovery BioRAPTR Flying Reagent Dispenser (BioRAPTR; Beckman Coulter, Inc., Brea, CA, USA) (3 µl/well for protein-containing buffer; 1 µl/well for detection antibodies) into white 1536-well solid-bottom medium binding plates (Greiner Bio-One, Monroe, NC, USA). […] For the LOPAC^1280 library screen, column 1 was all components with DMSO (maximum signal) and column 3 was no GKRP with DMSO (minimum signal). These two control columns were used for data normalization. The final HTS protocol is in Table S1, and the data have been deposited in PubChem (AID 743207).
S6P, F1P, and glucose were dissolved in water; GKAs were dissolved in DMSO.
The assay was validated using a range (0–150 nM) of GCK and GKRP concentrations at manufacturer-recommended detection antibody concentrations ( Figure 2A ). Fluorescence was measured immediately upon mixing, and every 30 minutes thereafter for a total of 240 minutes. The plate was covered and incubated at room temperature throughout the course of the experiment.
The assay was miniaturized to 1536-well plate format and, concurrently, specificity of detection was validated by using known modulators of the GCK-GKRP interaction.
The EC80 value represents a compromise between the desire for large enough signal enhancement and the need to maintain a binding level that is not too saturated so that it can be outcompeted by compounds of interest. Additionally, this approach enables detection of specific competitors of S6P, which would likely be acting on GKRP as desired, and not on GCK. […] Both glucose and GKAs interfere with the binding of GKRP to GCK and decrease GKRP inhibition, [44], [45], while F1P binds to GKRP and is competitive with respect to S6P [46].

[4] = system: cryopreserved human hepatocytes; assay: GCK translocation in cryopreserved human hepatocytes (GKRP-positive cells); assay type: cell-based
Procedure: Plateable cryopreserved human hepatocytes (female, lot number TRZ; male, lot number FOS) were plated at 50,000 cells/well in Biocoat black/clear collagen-coated 96-well plates in InVitroGRO™ CP medium supplemented with Torpedo™ Antibiotic Mix. After hepatocyte attachment, media was changed to InVitroGRO™ HI medium with Torpedo™ Antibiotic Mix.
Hepatocytes were fixed in 4% PFA for 15 minutes. PFA was then removed and cells were washed twice in Dulbecco’s phosphate-buffered saline (DPBS) containing 0.2% Triton-X and then permeabilized for 10 minutes with DPBS/0.2% Triton-X. Cells were then treated for 30 minutes with Odyssey protein blocking buffer (Li-cor Biosciences, Lincoln, NE, USA) before addition of a mouse monoclonal IgG2a GKRP antibody [GCKR (A-8); Santa Cruz Biotechnology, Inc., Santa Cruz, CA, USA]. The antibody (200 µg/ml) was diluted (1∶50) in protein blocking buffer and incubated with cells for 120 minutes. Cells were then washed (4×5 minutes) in PBS/0.1% Tween-20 before addition of protein blocking buffer containing Alexa Fluor® 647 Goat Anti-Mouse IgG (H+L) (Invitrogen; 1∶500 dilution) and rabbit polyclonal GCK antibody [1∶30 dilution; GCK (H-88) 200 µg/ml; Santa Cruz Biotechnology]. After 60 minutes, cells were washed with PBS/0.1% Tween-20 (4×5 minutes). Following a 60-minute incubation with blocking buffer and goat anti-rabbit IgG-HRP (1∶500 dilution; sc-2004; Santa Cruz Biotechnology), cells were washed with PBS/0.1% Tween-20 (4×5 minutes). Fluorescent detection of the HRP-conjugated secondary antibody was enabled using a 10-minute incubation with fluorescein-conjugated tyramide from the Tyramide Signal Amplification kit (PerkinElmer). The tyramide solution was prepared in DMSO (Sigma-Aldrich) according to the manufacturer’s instructions. Cells were then washed (3×5 minutes) with PBS/0.1% Tween-20 before a final five-minute wash with PBS/0.1% Tween-20 containing 0.02 mg/ml Hoechst 33342 Trihydrochloride Trihydrate (Hoechst; Invitrogen) for visualization of nuclei. After Hoechst staining, all cells were then stored in 100 µl DPBS at 4°C. […]

[5] = system: cryopreserved pooled male Sprague-Dawley rat hepatocytes; assay: GCK translocation in cryopreserved rat hepatocytes (high-content imaging); assay type: cell-based; settings: 2 hours
Procedure: Plateable cryopreserved pooled male Sprague-Dawley rat hepatocytes (lot number NPD) were thawed and plated (40,000 cells/well) in Biocoat black/clear collagen-coated 96-well plates (BD Biosciences, San Jose, CA, USA) in InVitroGRO™ CP Rat medium supplemented with Torpedo™ Antibiotic Mix (BioreclamationIVT). After hepatocyte attachment, media was changed to InVitroGRO™ HI Rat medium with Torpedo™ Antibiotic Mix.
Hepatocytes were fixed in 4% PFA for 15 minutes. PFA was then removed and cells were washed twice in Dulbecco’s phosphate-buffered saline (DPBS) containing 0.2% Triton-X and then permeabilized for 10 minutes with DPBS/0.2% Triton-X. Cells were then treated for 30 minutes with Odyssey protein blocking buffer (Li-cor Biosciences, Lincoln, NE, USA) before addition of a mouse monoclonal IgG2a GKRP antibody [GCKR (A-8); Santa Cruz Biotechnology, Inc., Santa Cruz, CA, USA]. The antibody (200 µg/ml) was diluted (1∶50) in protein blocking buffer and incubated with cells for 120 minutes. Cells were then washed (4×5 minutes) in PBS/0.1% Tween-20 before addition of protein blocking buffer containing Alexa Fluor® 647 Goat Anti-Mouse IgG (H+L) (Invitrogen; 1∶500 dilution) and rabbit polyclonal GCK antibody [1∶30 dilution; GCK (H-88) 200 µg/ml; Santa Cruz Biotechnology]. After 60 minutes, cells were washed with PBS/0.1% Tween-20 (4×5 minutes). […]

[6] = molecular target: T1, recombinant human GST-GCK; assay: GCK glucose S0.5 and Hill coefficient by luminescent ADP-Glo assay; assay type: biochemical; settings: 4 nM GCK, 4 mM ATP, 45 minutes
Procedure: The glucose S0.5 and Hill coefficient for GCK were calculated using a luminescent assay measuring the production of ADP by GCK (ADP-Glo™ Kinase Assay, Promega Corporation, Madison, WI, USA; see below). Luminescence was measured at 18 glucose concentrations from 0.1 to 100 mM (two separate experiments; each n = 8 for each concentration).
The assay included 4 nM GCK and 4 mM ATP and was terminated after 45 minutes. Each data point is mean ± SEM (n = 8). Curves were fit using nonlinear regression with the allosteric sigmoidal option in GraphPad Prism to determine the S0.5 and Hill coefficient.

[7] = molecular target: T3, Recombinant glutathione-S-transferase (GST)-tagged human glucokinase (human, UniProt P35557 1-465); assay: AlphaScreen or HTRF; 1536-well plate, 4 µl final volume; 5 nM GST-GCK and 5 nM FLAG-GKRP in solution, without S6P or with S6P (2 µM for the inhibitor tests); anti-GST K and anti-FLAG XL 665 antibodies; HTRF assay buffer pH 7.1; room temperature, 60 minutes; signal ratio 665 nm/615 nm; settings: both partners purified
T3 construct: glucokinase (GCK), human; also called GCK; GST-GCK; source: prepared as described previously [24], [35]
T3 sequence (looked up): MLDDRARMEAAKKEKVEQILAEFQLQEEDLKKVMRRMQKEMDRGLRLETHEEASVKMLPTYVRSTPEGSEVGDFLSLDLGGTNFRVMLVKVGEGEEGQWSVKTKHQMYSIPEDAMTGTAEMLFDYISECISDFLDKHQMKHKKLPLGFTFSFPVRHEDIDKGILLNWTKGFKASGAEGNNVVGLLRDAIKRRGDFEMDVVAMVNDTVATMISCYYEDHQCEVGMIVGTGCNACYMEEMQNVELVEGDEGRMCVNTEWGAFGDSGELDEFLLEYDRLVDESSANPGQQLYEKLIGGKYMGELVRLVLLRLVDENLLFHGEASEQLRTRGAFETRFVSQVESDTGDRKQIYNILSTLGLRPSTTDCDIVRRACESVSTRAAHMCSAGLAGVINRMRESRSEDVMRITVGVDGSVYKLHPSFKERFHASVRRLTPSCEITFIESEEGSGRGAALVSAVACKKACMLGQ

[8] = molecular target: T3, Recombinant glutathione-S-transferase …; assay: AlphaScreen or HTRF; 384-well plate; GST-GCK and FLAG-GKRP each titrated 0-150 nM in solution; anti-GST K (donor) and anti-FLAG XL 665 (acceptor) antibodies; 2 mM MgCl2, 25 mM KCl, 25 mM HEPES, 1 mM DTT, 0.1% Tween-20, 0.025% BSA, pH 7.1; room temperature, read at t = 60 minutes; signal ratio 665 nm/615 nm; settings: both partners purified

Nc1ncnc2c1ncn2[C@@H]1O[C@H](COP(=O)(O)OP(=O)(O)OP(=O)(O)O)[C@@H](O)[C@H]1O [ATP]
Km [1]: 400 ± 110 µM
Km ([2]; recombinant GST-GCK, read-out: ATP Km, previously described): 400 µM

OC[C@H]1OC(O)[C@H](O)[C@@H](O)[C@@H]1O (some centres unmarked) [glucose]
Hill coefficient, previously reported [2]: 1.6–1.7
glucose S0.5, previously reported [2]: 7.5 to 10 mM
IC50 [3]: 16 ± 1.4 mM
increase in number of translocation-positive cells ([4]; 25 mM glucose compared to 2.5 mM glucose, both lots (TRZ, FOS)): approximately 10%
cells with translocated GCK ([5]; 2.5 mM glucose): 25%
cells with translocated GCK ([5]; 16.7 mM glucose): 84%
Hill coefficient ([6]; mean ± SD): 1.53±0.1
glucose S0.5 ([6]; mean ± SD across two experiments): 7.5 ± 0.8 mM

OC[C@@H](O)[C@@H](O)[C@H](O)[C@@H](O)CO [sorbitol]
GCK translocation response ([4]; lot FOS): no translocation was observed
GCK translocation response ([4]; lot TRZ, 2.5 mM glucose): approximately four-fold

B1: Recombinant FLAG-tagged human glucokinase regulatory protein (natural protein, UniProt Q14397 1-625, looked up)
chain: MPGTKRFQHVIETPEPGKWELSGYEAAVPITEKSNPLTQDLDKADAENIVRLLGQCDAEIFQEEGQALSTYQRLYSESILTTMVQVAGKVQEVLKEPDGGLVVLSGGGTSGRMAFLMSVSFNQLMKGLGQKPLYTYLIAGGDRSVVASREGTEDSALHGIEELKKVAAGKKRVIVIGISVGLSAPFVAGQMDCCMNNTAVFLPVLVGFNPVSMARNDPIEDWSSTFRQVAERMQKMQEKQKAFVLNPAIGPEGLSGSSRMKGGSATKILLETLLLAAHKTVDQGIAASQRCLLEILRTFERAHQVTYSQSPKIATLMKSVSTSLEKKGHVYLVGWQTLGIIAIMDGVECIHTFGADFRDVRGFLIGDHSDMFNQKAELTNQGPQFTFSQEDFLTSILPSLTEIDTVVFIFTLDDNLTEVQTIVEQVKEKTNHIQALAHSTVGQTLPIPLKKLFPSIISITWPLLFFEYEGNFIQKFQRELSTKWVLNTVSTGAHVLLGKILQNHMLDLRISNSKLFWRALAMLQRFSGQSKARCIESLLRAIHFPQPLSDDIRAAPISCHVQVAHEKEQVIPIALLSLLFRCSITEAQAHLAAAPSVCEAVRSALAGPGQKRTADPLEILEPDVQ
notes: glucokinase regulatory protein (GKRP), encoded by GCKR, human; also called GKRP; FLAG-GKRP; source: prepared as described previously [24], [35]
HTRF signal ratio (665 nm/615 nm) at 5 nM of both proteins, no S6P [7]: 1.87
HTRF signal ratio (665 nm/615 nm) at 5.56 nM of both proteins [8]: 1.77
